The test has as its target Cathepsin S (Homo sapiens, UniProt P25774). Put plainly: Cathepsin Enzyme Inhibition Assay: Enzyme activity is measured by observing the increase in fluorescence intensity caused by cleavage of a peptide substrate containing a fluorophore whose emission is quenched in the intact peptide.Assay buffer: 100 mM potassium phosphate pH 6.5, EDTA-Na 5 mM, Triton X-100 0.001%, DTT 5 mM.Enzymes (all at 1 nM): human and mouse Cathepsin S, Cat K, Cat B, Cat L.Substrate (20 Z-Val-Val-Arg-AMC, except for Cat K which uses Z-Leu-Arg-AMC (both from Bachem).Z=Benzyloxycarbonyl.AMC=7-Amino-4-Methyl-Coumarin.DTT=dithiothreitol.Final volume: 100 μL.Excitation 360 nm, Emission 465 nm.Enzyme is added to the substance dilutions in 96-well microtitre plates and the reaction is started with substrate. Fluorescence emission is measured over 20 minutes, during which time a linear increase is observed in the absence of inhibitor.

Molecules are shown by their SMILES.

A word on the IC50: it is the midpoint of a concentration-inhibition curve.

Sequence of Cathepsin S (P25774 whole entry): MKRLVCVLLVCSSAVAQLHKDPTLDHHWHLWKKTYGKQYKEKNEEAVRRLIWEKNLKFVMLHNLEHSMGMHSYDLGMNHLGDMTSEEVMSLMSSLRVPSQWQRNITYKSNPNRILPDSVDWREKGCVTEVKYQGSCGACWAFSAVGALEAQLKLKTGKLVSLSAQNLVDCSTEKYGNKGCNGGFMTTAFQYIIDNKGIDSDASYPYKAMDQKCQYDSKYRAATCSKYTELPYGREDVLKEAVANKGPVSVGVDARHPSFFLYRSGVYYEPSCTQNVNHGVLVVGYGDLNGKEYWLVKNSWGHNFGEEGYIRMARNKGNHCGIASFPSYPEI

`Cn1c(=O)n(C2CCN(Cc3nc(-c4ccc(C(F)(F)F)cc4)[nH]c3-c3ccccc3)CC2)c2ccccc21` displayed a half-inhibitory concentration (IC50) of 985 nM.
